Test system: 786-0 complex spheroids with HUVEC/MSC, growth % test/control
Test: Anticancer human tumor 786-0 cell line growth inhibition [AhR];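 also: compound exposure lasted seven days before the read-out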
Conditions: for IC50: curve of first compound; for viability, T/C: stronger effect = lower value
From the text: Multicellular complex tumor spheroid response to aryl hydrocarbon receptor antagonists in combination with a variety of drugs and investigational agents in selected tumor cell lines
The current study was undertaken to assess response to aryl hydrocarbon receptor antagonists in combination with standard-of-care drugs and investigational agents in solid tumor complex spheroid models. Complex spheroids include a stromal component modeled by human endothelial cells (HUVEC) and fibroblasts modeled by human mesenchymal stem cells (MSCs). The concentration ranges selected for each drug and investigational agent were based upon clinically achievable concentrations if the clinical Cmax of the agent was known.
Compounds. The drugs and investigational agents: BAY 2416964 (NSC825713), GNF351 (NSC835774), CH-223191 (NSC835775), CPI-455 (NSC825282), aza-TdCyd (NSC777586), decitabine (NSC127716), belinostat (NSC758774), entinostat (NSC756642), pevonedistat (NSC761192), tazemetostat (NSC777109), talazoparib (NSC765396), olaparib (NSC753686), selinexor (NSC780203), nedisertib (M3814, NSC802822), bortezomib (NSC756655), venetoclax (NSC766270), doxorubicin (NSC123127), elimusertib (BAY189344, NSC800525), ceralasertib (AZD6738, NSC777638), TAK-243 (NSC785004), alisertib (NSC759677), etoposide (NSC141540), topotecan (NSC609699), eribulin (NSC707389), gemcitabine (NSC613327), carboplatin (NSC241240), cisplatin (NSC119875), and SN-38 (NSC673596) were obtained from the National Cancer Institute (NCI) Developmental Therapeutics Program Chemical Repository (32). The FDA-approved anticancer drug set is available from the Developmental Therapeutics Program at https://dtp.cancer.gov/organization/dscb/obtaining/available plates.htm. […] The stock solutions were prepared in dimethyl sulfoxide (DMSO, Sigma-Aldrich, St. Louis, MO, cat. D2650), except for the platinum compounds which were prepared in saline (Quality Biological, Gaithersburg, MD, cat. 114-055-101), at 800-fold the tested concentration and stored at -70 degrees C prior to their use. All drugs and investigational agents were tested over a range starting from a high concentration at or near the clinical Cmax and decreasing in half-log increments. If the clinical Cmax for an agent had not been determined, the highest concentration tested was 10 microM (Table 1).
Cell Culture. All cells were maintained in an incubator at 37 degrees C and 5% CO2 with 95% humidity. The PDC lines were cultured according to standard operating procedures established by the NCI PDMR (https://pdmr.cancer.gov). Briefly, all PDCs were thawed and cultured in Matrigel-coated flasks prepared with a working solution of 1X Ham's F-12 nutrient mix, without supplementation (Invitrogen, Waltham, MA, cat. 11765054), 100 U/mL penicillin-streptomycin (Invitrogen, cat. 15140122), and 2.5% Matrigel (Corning Inc., Corning, NY, cat. 354248) for the first three passages. All PDCs were cultured in complete DMEM/F-12 media containing advanced DMEM/F-12 (Invitrogen, cat. 12634028), 4.9% defined fetal bovine serum, heat inactivated (HyClone Laboratories Inc., Logan, UT, cat. SH30070.03HI), 389 ng/mL hydrocortisone (Sigma-Aldrich, cat. H4001), 9.7 ng/mL human EGF recombinant protein (Invitrogen, cat. PHG0313), 23.4 microg/mL adenine (Sigma-Aldrich, cat. A2786), 97.3 U/mL penicillin-streptomycin (Invitrogen, cat. 15140122), 1.9 mM L-glutamine (Invitrogen, cat. 25030081), and 9.7 microM Y-27632 dihydrochloride (Tocris Bioscience, Bristol, United Kingdom, cat. 1254). The PDCs were cultured in complete DMEM/F12 media without 10 microM Y-27632 dihydrochloride for at least two passages prior to the screen. The established cell lines NCI-H1341 and […] were cultured in DMEM/F-12, HEPES (Invitrogen, cat. 11330032), 5% defined fetal bovine serum (HyClone Laboratories Inc., cat. SH30070.03), ITS premix universal culture supplement [insulin (5 microg/mL), transferrin (5 microg/mL), and selenious acid (5 ng/mL)] […]

[1] = second compound 0.1 µM, first compound 0.0316 µM
[2] = second compound 0.1 µM, first compound 0.1 µM
[3] = second compound 0.1 µM, first compound 0.316 µM
[4] = second compound 0.1 µM, first compound 1 µM
[5] = second compound 0.1 µM, first compound 3.16 µM
[6] = second compound 0.1 µM, first compound 10 µM
[7] = second compound 0.316 µM, first compound 0.0316 µM
[8] = second compound 0.316 µM, first compound 0.1 µM
[9] = second compound 0.316 µM, first compound 0.316 µM
[10] = second compound 0.316 µM, first compound 1 µM
[11] = second compound 0.316 µM, first compound 3.16 µM
[12] = second compound 0.316 µM, first compound 10 µM
[13] = second compound 1 µM, first compound 0.0316 µM
[14] = second compound 1 µM, first compound 0.1 µM
[15] = second compound 1 µM, first compound 0.316 µM
[16] = second compound 1 µM, first compound 1 µM
[17] = second compound 1 µM, first compound 3.16 µM
[18] = second compound 1 µM, first compound 10 µM
[19] = second compound 3.16 µM, first compound 0.0316 µM
[20] = second compound 3.16 µM, first compound 0.1 µM
[21] = second compound 3.16 µM, first compound 0.316 µM
[22] = second compound 3.16 µM, first compound 1 µM
[23] = second compound 3.16 µM, first compound 3.16 µM
[24] = second compound 3.16 µM, first compound 10 µM
[25] = second compound 10 µM, first compound 0.0316 µM
[26] = second compound 10 µM, first compound 0.1 µM
[27] = second compound 10 µM, first compound 0.316 µM
[28] = second compound 10 µM, first compound 1 µM
[29] = second compound 10 µM, first compound 3.16 µM
[30] = second compound 10 µM, first compound 10 µM

With `CC(C)CC(NC(=O)C(Cc1ccccc1)NC(=O)c1cnccn1)B(O)O` (stereo not given) + CC(CO)NC(=O)c1cc(-c2ccc(Cl)cc2)nn(-c2cnn(C)c2)c1=O the IC50 (second compound 0.1 µM) was 0.00771 µM, the IC50 (second compound 0.316 µM) was 0.00836 µM and the IC50 (second compound 1 µM) was 0.00849 µM. It also gave an IC50 (second compound 3.16 µM) of 0.00794 µM, an IC50 (second compound 10 µM) of 0.00788 µM and a viability, T/C (second compound 0.1 µM, first compound 0.000949 µM) of 108%. The viability, T/C (second compound 0.1 µM, first compound 0.003 µM) was 103%, the viability, T/C (second compound 0.1 µM, first compound 0.00949 µM) was 38.4% and the viability, T/C (second compound 0.1 µM, first compound 0.03 µM) was 0.34%. It also gave a viability, T/C (second compound 0.1 µM, first compound 0.0949 µM) of 0.27%, a viability, T/C (second compound 0.1 µM, first compound 0.3 µM) of 0.18% and a viability, T/C (second compound 0.316 µM, first compound 0.000949 µM) of 114%. For the same compound, the viability, T/C (second compound 0.316 µM, first compound 0.003 µM) was 117%, the viability, T/C (second compound 0.316 µM, first compound 0.00949 µM) was 41.9% and the viability, T/C (second compound 0.316 µM, first compound 0.03 µM) was 0.39%. The viability, T/C (second compound 0.316 µM, first compound 0.0949 µM) was 0.19%, the viability, T/C (second compound 0.316 µM, first compound 0.3 µM) was 0.19% and the viability, T/C (second compound 1 µM, first compound 0.000949 µM) was 112%. It also gave a viability, T/C (second compound 1 µM, first compound 0.003 µM) of 112%, a viability, T/C (second compound 1 µM, first compound 0.00949 µM) of 43.3% and a viability, T/C (second compound 1 µM, first compound 0.03 µM) of 0.56%. For the same compound, the viability, T/C (second compound 1 µM, first compound 0.0949 µM) was 0.17%, the viability, T/C (second compound 1 µM, first compound 0.3 µM) was 0.33% and the viability, T/C (second compound 3.16 µM, first compound 0.000949 µM) was 117%. The viability, T/C (second compound 3.16 µM, first compound 0.003 µM) was 118%, the viability, T/C (second compound 3.16 µM, first compound 0.00949 µM) was 37.6% and the viability, T/C (second compound 3.16 µM, first compound 0.03 µM) was 1.26%. For the same compound, the viability, T/C (second compound 3.16 µM, first compound 0.0949 µM) was 0.23%, the viability, T/C (second compound 3.16 µM, first compound 0.3 µM) was 0.25% and the viability, T/C (second compound 10 µM, first compound 0.000949 µM) was 120%. The viability, T/C (second compound 10 µM, first compound 0.003 µM) was 127%, the viability, T/C (second compound 10 µM, first compound 0.00949 µM) was 35.9% and the viability, T/C (second compound 10 µM, first compound 0.03 µM) was 1.88%. The viability, T/C (second compound 10 µM, first compound 0.0949 µM) was 0.9% and the viability, T/C (second compound 10 µM, first compound 0.3 µM) was 0.37%.
Work on `Nc1ccccc1NC(=O)c1ccc(CNC(=O)OCc2cccnc2)cc1` + CC(CO)NC(=O)c1cc(-c2ccc(Cl)cc2)nn(-c2cnn(C)c2)c1=O yielded an IC50 (second compound 0.1 µM) of 5.28 µM, an IC50 (second compound 0.316 µM) of 5.23 µM and an IC50 (second compound 1 µM) of 4.78 µM. The IC50 (second compound 3.16 µM) was 4.6 µM, the IC50 (second compound 10 µM) was 4.08 µM and the viability, T/C [1] was 107%. The viability, T/C [2] was 104%, the viability, T/C [3] was 110% and the viability, T/C [4] was 104%. It also gave a viability, T/C [5] of 73.8%, a viability, T/C [6] of 20.3% and a viability, T/C [7] of 114%. It also gave a viability, T/C [8] of 99.3%, a viability, T/C [9] of 113% and a viability, T/C [10] of 101%. For the same compound, the viability, T/C [11] was 76.7%, the viability, T/C [12] was 15.9% and the viability, T/C [13] was 101%. For the same compound, the viability, T/C [14] was 112%, the viability, T/C [15] was 98.1% and the viability, T/C [16] was 104%. It also gave a viability, T/C [17] of 68.5%, a viability, T/C [18] of 16.9% and a viability, T/C [19] of 111%. For the same compound, the viability, T/C [20] was 110%, the viability, T/C [21] was 110% and the viability, T/C [22] was 92%. For the same compound, the viability, T/C [23] was 65.7%, the viability, T/C [24] was 18.8% and the viability, T/C [25] was 113%. It also gave a viability, T/C [26] of 114%, a viability, T/C [27] of 102% and a viability, T/C [28] of 96.4%. For the same compound, the viability, T/C [29] was 58% and the viability, T/C [30] was 18.8%.
`O=C(C=Cc1cccc(S(=O)(=O)Nc2ccccc2)c1)NO` + CC(CO)NC(=O)c1cc(-c2ccc(Cl)cc2)nn(-c2cnn(C)c2)c1=O gave an IC50 (second compound 0.1 µM) of 6.02 µM, an IC50 (second compound 0.316 µM) of 5.21 µM and an IC50 (second compound 1 µM) of 5.51 µM. The IC50 (second compound 3.16 µM) was 4.85 µM, the IC50 (second compound 10 µM) was 4.71 µM and the viability, T/C [1] was 102%. It also gave a viability, T/C [2] of 106%, a viability, T/C [3] of 97.2% and a viability, T/C [4] of 107%. For the same compound, the viability, T/C [5] was 93.8%, the viability, T/C [6] was 15.2% and the viability, T/C [7] was 104%. The viability, T/C [8] was 101%, the viability, T/C [9] was 111% and the viability, T/C [10] was 110%. For the same compound, the viability, T/C [11] was 79%, the viability, T/C [12] was 12% and the viability, T/C [13] was 100%. The viability, T/C [14] was 104%, the viability, T/C [15] was 104% and the viability, T/C [16] was 105%. For the same compound, the viability, T/C [17] was 84.7%, the viability, T/C [18] was 12.5% and the viability, T/C [19] was 103%. The viability, T/C [20] was 102%, the viability, T/C [21] was 103% and the viability, T/C [22] was 101%. The viability, T/C [23] was 73.6%, the viability, T/C [24] was 10% and the viability, T/C [25] was 109%. For the same compound, the viability, T/C [26] was 108%, the viability, T/C [27] was 106% and the viability, T/C [28] was 94.8%. The viability, T/C [29] was 72.6% and the viability, T/C [30] was 8.46%.
